Test system: SARS-CoV-2
Assay: microbe, parasite or virus in culture
Conditions: Severe acute respiratory syndrome coronavirus 2, Vero C1008, 48 h

Structure (SMILES): C[C@@H]1C[C@H]2[C@@H]3CCC4=CC(=O)C=C[C@]4(C)[C@@]3(F)[C@@H](O)C[C@]2(C)[C@@]1(O)C(=O)CO [DEXAMETHASONE]
- IC50: > 20 µM
- IC50 (read-out: pIC50 (converted)): > 20 µM

Structure (SMILES): Cn1cnc2c(F)c(Nc3ccc(Br)cc3F)c(C(=O)NOCCO)cc21 [BINIMETINIB]
- IC50: > 20 µM
- IC50 (read-out: pIC50 (converted)): > 20 µM

Structure (SMILES): CC12C=CC(=O)C=C1CCC1C2C(=O)CC2(C)C1CC[C@]2(O)C(=O)CO (some centres not stated)
- IC50: > 20 µM
- IC50 (read-out: pIC50 (converted)): > 20 µM

Structure (SMILES): CC(=O)Oc1cc(O[C@H](C)CCCc2ccccc2)cc2c1[C@@H]1C[C@H](O)CC[C@H]1[C@H](C)N2 [LEVONANTRADOL]
- IC50: > 20 µM
- IC50 (read-out: pIC50 (converted)): > 20 µM

Structure (SMILES): CCCCCCCCCCCC[N+](C)(C)CCOc1ccccc1 [DOMIPHEN]
- IC50: > 20 µM
- IC50 (read-out: pIC50 (converted)): > 20 µM

Structure (SMILES): O=C(O)COc1nn(Cc2ccccc2)c2ccccc12 [BENDAZAC]
- IC50: > 20 µM
- IC50 (read-out: pIC50 (converted)): > 20 µM

Structure (SMILES): CCO[C@@H]1OC(=O)C[C@@H]1NC(=O)[C@@H]1CCCN1C(=O)[C@@H](NC(=O)c1ccc(N)c(Cl)c1)C(C)(C)C [BELNACASAN]
- IC50: > 20 µM
- IC50 (read-out: pIC50 (converted)): > 20 µM

Structure (SMILES): O=C1c2ccccc2C(=O)C1c1ccc(Br)cc1 [BROMINDIONE]
- IC50: > 20 µM
- IC50 (read-out: pIC50 (converted)): > 20 µM

Structure (SMILES): NS(=O)(=O)c1cc2c(cc1Cl)NC(c1ccccc1)NC2=O (configuration not stated) [FENQUIZONE]
- IC50: > 20 µM
- IC50 (read-out: pIC50 (converted)): > 20 µM

Structure (SMILES): CCN(CC)CCNC(=O)c1c(C)[nH]c(/C=C2\C(=O)Nc3ccc(F)cc32)c1C [SUNITINIB]
- IC50: > 20 µM
- IC50 (read-out: pIC50 (converted)): > 20 µM

Structure (SMILES): CN1CC[C@@]2(C)c3cc(O)ccc3N(C)[C@H]12
- IC50: > 20 µM
- IC50 (read-out: pIC50 (converted)): > 20 µM

Structure (SMILES): CC(=O)Nc1c(I)c(NC(C)=O)c(I)c(C(=O)O)c1I [DIATRIZOIC ACID]
- IC50: > 20 µM
- IC50 (read-out: pIC50 (converted)): > 20 µM

Structure (SMILES): O=C(O)CC(O)C(=O)O (configuration not stated) [MALIC ACID]
- IC50: > 20 µM
- IC50 (read-out: pIC50 (converted)): > 20 µM

Structure (SMILES): OCCN(CCO)c1nc(N2CCCCC2)c2nc(N(CCO)CCO)nc(N3CCCCC3)c2n1 [DIPYRIDAMOLE]
- IC50: > 20 µM
- IC50 (read-out: pIC50 (converted)): > 20 µM

Structure (SMILES): COC(=O)[C@H](C)N[P@](=O)(OC[C@H]1O[C@@H](n2cc(/C=C/Br)c(=O)[nH]c2=O)C[C@@H]1O)Oc1ccccc1
- IC50: > 20 µM
- IC50 (read-out: pIC50 (converted)): > 20 µM

Structure (SMILES): c1ccc(C2(N3CCCCC3)CCCCC2)cc1 [PHENCYCLIDINE]
- IC50: > 20 µM
- IC50 (read-out: pIC50 (converted)): > 20 µM

Structure (SMILES): N=C(NO)N/N=C/c1c(Cl)cccc1Cl [GUANOXABENZ]
- IC50: > 20 µM
- IC50 (read-out: pIC50 (converted)): > 20 µM

Structure (SMILES): O=C(CCCN1CCC(n2c(=O)[nH]c3ccccc32)CC1)c1ccc(F)cc1 [BENPERIDOL]
- IC50: > 20 µM
- IC50 (read-out: pIC50 (converted)): > 20 µM

Structure (SMILES): CC1(C)O[C@@H]2C[C@H]3[C@@H]4C[C@H](F)C5=CC(=O)C=C[C@]5(C)[C@@]4(F)[C@@H](O)C[C@]3(C)[C@]2(C(=O)CO)O1 [FLUOCINOLONE ACETONIDE]
- IC50: > 20 µM
- IC50 (read-out: pIC50 (converted)): > 20 µM

Structure (SMILES): COc1c2ccoc2cc2oc(=O)ccc12 [BERGAPTEN]
- IC50: > 20 µM
- IC50 (read-out: pIC50 (converted)): > 20 µM

Structure (SMILES): COc1cc2c(cc1OC)C(C)N(CCc1ccc(N)cc1)CC2 (configuration not stated) [VERADOLINE]
- IC50: > 20 µM
- IC50 (read-out: pIC50 (converted)): > 20 µM

Structure (SMILES): CNC(=O)c1cc(COc2nnc(Nc3ccc(Cl)cc3)c3ccoc23)ccn1 [TELATINIB]
- IC50: > 20 µM
- IC50 (read-out: pIC50 (converted)): > 20 µM

Structure (SMILES): CC1(N)CCN(c2cccnc2NC(=O)c2nc(-c3ncccc3C(F)(F)F)cnc2N)CC1 [DAROVASERTIB]
- IC50: > 20 µM
- IC50 (read-out: pIC50 (converted)): > 20 µM

Structure (SMILES): CCN1CCCC1CNC(=O)c1cc(S(N)(=O)=O)ccc1OC (configuration not stated) [SULPIRIDE]
- IC50: > 20 µM
- IC50 (read-out: pIC50 (converted)): > 20 µM

Structure (SMILES): CNC(=O)c1cnn(-c2nc(N)c3ncn([C@@H]4O[C@H](CO)[C@@H](O)[C@H]4O)c3n2)c1 [REGADENOSON ANHYDROUS]
- IC50: > 20 µM
- IC50 (read-out: pIC50 (converted)): > 20 µM

Structure (SMILES): CC(C)[C@H](O)C(=O)N[C@@H](C)C(=O)N[C@@H]1C(=O)N(C)CCc2ccccc21
- IC50: > 20 µM
- IC50 (read-out: pIC50 (converted)): > 20 µM

Structure (SMILES): CC[C@H]1OC(=O)[C@H](C)[C@@H](O[C@H]2C[C@@](C)(OC)[C@@H](O)[C@H](C)O2)[C@H](C)[C@@H](O[C@@H]2O[C@H](C)C[C@H](N(C)C)[C@H]2O)[C@](C)(O)C[C@@H](C)[C@@H]2N[C@@H](COCCOC)O[C@H]([C@H]2C)[C@]1(C)O [DIRITHROMYCIN]
- IC50: > 20 µM
- IC50 (read-out: pIC50 (converted)): > 20 µM

Structure (SMILES): COc1ccc(C(=O)OC2C[C@H]3CC[C@H](C2)N3C)cc1OC (some centres not stated)
- IC50: > 20 µM
- IC50 (read-out: pIC50 (converted)): > 20 µM

Structure (SMILES): CCCCC1(CCCC)CN(c2ccccc2)c2cc(SC)c(OCC(=O)N[C@@H](C(=O)NCC(=O)O)c3ccccc3)cc2S(=O)(=O)C1 [ELOBIXIBAT]
- IC50: > 20 µM
- IC50 (read-out: pIC50 (converted)): > 20 µM

Structure (SMILES): N[C@@H](Cc1cc(I)c(Oc2cc(I)c(O)c(I)c2)c(I)c1)C(=O)O [LEVOTHYROXINE]
- IC50: > 20 µM
- IC50 (read-out: pIC50 (converted)): > 20 µM

Structure (SMILES): C[C@H]1c2cccc(O)c2C(=O)C2=C(O)[C@]3(O)C(=O)C(C(N)=O)=C(O)[C@@H](N(C)C)[C@@H]3[C@@H](O)[C@@H]21 [DOXYCYCLINE]
- IC50: > 20 µM
- IC50 (read-out: pIC50 (converted)): > 20 µM

Structure (SMILES): O=C(NCC(O)CO)c1c(I)c(C(=O)NCC(O)CO)c(I)c(N(CCO)C(=O)CO)c1I (configuration not stated) [IOVERSOL]
- IC50: > 20 µM
- IC50 (read-out: pIC50 (converted)): > 20 µM

Structure (SMILES): O=C(O)C(=O)Cc1c[nH]c2ccccc12
- IC50: > 20 µM
- IC50 (read-out: pIC50 (converted)): > 20 µM

Structure (SMILES): C[C@@]12CCC3[C@@](CC[C@@H]4[C@](C)(C(=O)O)CCC[C@@]34C)(CC1=O)C2 (some centres not stated)
- IC50: > 20 µM
- IC50 (read-out: pIC50 (converted)): > 20 µM

Structure (SMILES): COc1cc(O)c(C(=O)c2ccccc2)cc1S(=O)(=O)O [SULISOBENZONE]
- IC50: > 20 µM
- IC50 (read-out: pIC50 (converted)): > 20 µM

Structure (SMILES): O=c1[nH]cnc2nc[nH]c12 [HYPOXANTHINE]
- IC50: > 20 µM
- IC50 (read-out: pIC50 (converted)): > 20 µM
